Assay results reported in US8748461B2, “Metalloenzyme inhibitor compounds” (Viamet Pharmaceuticals, Inc., priority 2011, dated 2014).
Values after ≈ are worked out from the molar mass of the structure shown.

Tested on: Septoria tritici (ATCC 26517)
Test: Minimum Inhibitory Concentration (MIC) vs. Septoria tritici
Assay type: cell-based
Settings: Zymoseptoria tritici, ATCC26517, 168 h; 50% reduction in growth of S. tritici; 22° C., seven days; read-out: Septoria Rating (MIC)
Experimental: C. Minimum Inhibitory Concentration (MIC) vs. Septoria tritici Compounds were assessed for their ability to inhibit the growth of a common strain of the fungal plant pathogen Septoria tritici (ATCC 26517) using a procedure based on a Clinical and Laboratory Standards Institute (CLSI) microdilution assay protocol for filamentous fungi. Stock solutions of the test compounds and standards were prepared in DMSO at 6400 μg/mL. Each stock solution was used to prepare a 2-fold dilution series ranging from 16 to 0.016 μg/mL (total of 11 compound concentrations) in RPMI-1640 (Roswell Park Memorial Institute) medium containing 3-(N-morpholino)propanesulfonic acid (MOPS) buffer and 2% DMSO. A 100 μL aliquot of the dilutions was added to columns 1 (16 μg/mL compound) through 11 (0.016 μg/mL compound) of a 96-well microtiter plate. This format was replicated in a second row of the microtiter plate. Thus, each microtiter plate could include 11 concentrations of four test or control compounds replicated twice. A 100 μL aliquot of RPMI-1640/MOPS/2% DMSO medium was added to column 12 (no compound control) of the microtiter plate. A fresh culture of S. tritici was used to prepare a solution of approximately 5×10^4 colony-forming units per milliliter (cfu/mL) in RPMI/MOPS medium without DMSO. A 100 μL aliquot of this solution was added to all 96 wells in the microtiter plate. […] The assay plates were incubated at 22° C. for seven days in the dark without shaking. […] In each case of Table 3, the Septoria rating scale is as follows: […]

Row | Compound | MIC
1 | N#Cc1cccc(COc2ccc(C(F)(F)C(O)(Cn3ncnn3)c3ccc(F)cc3F)nc2)c1F (stereo not drawn) [Compound 68, 3-(((6-(2-(2,4-Difluorophenyl)-1,1-difluoro-2-hydroxy-3-(2H-tetrazol-2-yl)propyl)pyridin-3-yl)oxy)methyl)-2-fluorobenzonitrile] | 1.5 to 4 µg/mL (≈ 2.99 to 7.96 µM)
2 | OC(Cn1cnnn1)(c1ccc(F)cc1F)C(F)(F)c1ccc(SCC(F)(F)F)cn1 (stereo not drawn) [Compound 18, 2-(2,4-Difluorophenyl)-1,1-difluoro-3-(1H-tetrazol-1-yl)-1-(5-((2,2,2-trifluoroethyl)thio)pyridin-2-yl)propan-2-ol] | 1.5 to 4 µg/mL (≈ 3.21 to 8.56 µM)
3 | OC(Cn1cnnn1)(c1ccc(F)cc1F)C(F)(F)c1ccc(OCc2cccc(OCC(F)(F)F)c2)cn1 (stereo not drawn) [Compound 25, 2-(2,4-Difluorophenyl)-1,1-difluoro-3-(1H-tetrazol-1-yl)-1-(5-((3-(2,2,2-trifluoroethoxy)benzyl)oxy)pyridin-2-yl)propan-2-ol] | ≤ 0.5 µg/mL
4 | N#Cc1ccc(COc2ccc(C(F)(F)C(O)(Cn3ncnn3)c3ccc(Cl)cc3F)nc2)nc1 (stereo not drawn) [Compound 62, 6-(((6-(2-(4-Chloro-2-fluorophenyl)-1,1-difluoro-2-hydroxy-3-(2H-tetrazol-2-yl)propyl)pyridin-3-yl)oxy)methyl)nicotinonitrile] | 1.5 to 4 µg/mL (≈ 2.99 to 7.97 µM)
5 | OC(Cn1ccnn1)(c1ccc(F)cc1F)C(F)(F)c1ccc(OCc2cccc(F)c2F)cn1 (stereo not drawn) [Compound 44, 1-(5-((2,3-Difluorobenzyl)oxy)pyridin-2-yl)-2-(2,4-difluorophenyl)-1,1-difluoro-3-(1H-1,2,3-triazol-1-yl)propan-2-ol] | 1.5 to 4 µg/mL (≈ 3.03 to 8.09 µM)
6 | OC(Cn1ncnn1)(c1ccc(F)cc1F)C(F)(F)c1ccc(OCC2CC2)cn1 (stereo not drawn) [Compound 40, 1-(5-(Cyclopropylmethoxy)pyridin-2-yl)-2-(2,4-difluorophenyl)-1,1-difluoro-3-(2H-tetrazol-2-yl)propan-2-ol] | > 4 µg/mL
7 | OC(Cn1ncnn1)(c1ccc(F)cc1F)C(F)(F)c1ccc(OCc2ccccn2)cn1 (stereo not drawn) [Compound 38, 2-(2,4-Difluorophenyl)-1,1-difluoro-1-(5-(pyridin-2-ylmethoxy)pyridin-2-yl)-3-(2H-tetrazol-2-yl)propan-2-ol] | > 4 µg/mL
8 | CC#CCOc1ccc(C(F)(F)C(O)(Cn2ncnn2)c2ccc(F)cc2F)nc1 (stereo not drawn) [Compound 33, 1-(5-(But-2-yn-1-yloxy)pyridin-2-yl)-2-(2,4-difluorophenyl)-1,1-difluoro-3-(2H-tetrazol-2-yl)propan-2-ol] | > 4 µg/mL
9 | N#Cc1cc(COc2ccc(C(F)(F)C(O)(Cn3ncnn3)c3ccc(F)cc3F)nc2)ccc1F (stereo not drawn) [Compound 66, 5-(((6-(2-(2,4-Difluorophenyl)-1,1-difluoro-2-hydroxy-3-(2H-tetrazol-2-yl)propyl)pyridin-3-yl)oxy)methyl)-2-fluorobenzonitrile] | > 4 µg/mL
10 | N#Cc1ccc(CSc2ccc(C(F)(F)C(O)(Cn3ncnn3)c3ccc(F)cc3F)nc2)c(F)c1 (stereo not drawn) [Compound 16, 4-(((6-(2-(2,4-Difluorophenyl)-1,1-difluoro-2-hydroxy-3-(2H-tetrazol-2-yl)propyl)pyridin-3-yl)thio)methyl)-3-fluorobenzonitrile] | 1.5 to 4 µg/mL (≈ 2.89 to 7.71 µM)
11 | CC(C)COc1ccc(C(F)(F)C(O)(Cn2ncnn2)c2ccc(Cl)cc2F)nc1 (stereo not drawn) [Compound 70, 2-(4-Chloro-2-fluorophenyl)-1,1-difluoro-1-(5-isobutoxypyridin-2-yl)-3-(2H-tetrazol-2-yl)propan-2-ol] | > 4 µg/mL
12 | N#Cc1ccc(COc2ccc(C(F)(F)C(O)(Cn3ncnn3)c3ccc(Cl)cc3F)nc2)cc1 (stereo not drawn) [Compound 56, 4-(((6-(2-(4-Chloro-2-fluorophenyl)-1,1-difluoro-2-hydroxy-3-(2H-tetrazol-2-yl)propyl)pyridin-3-yl)oxy)methyl)benzonitrile] | 1.5 to 4 µg/mL (≈ 2.99 to 7.99 µM)
13 | CC#CCOc1ccc(C(F)(F)C(O)(Cn2ncnn2)c2ccc(Cl)cc2F)nc1 (stereo not drawn) [Compound 64, 1-(5-(But-2-yn-1-yloxy)pyridin-2-yl)-2-(4-chloro-2-fluorophenyl)-1,1-difluoro-3-(2H-tetrazol-2-yl)propan-2-ol] | > 4 µg/mL
14 | OC(Cn1cnnn1)(c1ccc(F)cc1F)C(F)(F)c1cc(OCc2ccc(F)cc2F)ccn1 (stereo not drawn) [Compound 13, 1-(4-((2,4-Difluorobenzyl)oxy)pyridin-2-yl)-2-(2,4-difluorophenyl)-1,1-difluoro-3-(1H-tetrazol-1-yl)propan-2-ol] | 0.5 to 1.5 µg/mL (≈ 1.01 to 3.03 µM)
15 | N#Cc1ccc(Oc2ccc(C(F)(F)C(O)(Cn3ncnn3)c3ccc(Cl)cc3F)nc2)cc1 (stereo not drawn) [Compound 80, 4-((6-(2-(4-Chloro-2-fluorophenyl)-1,1-difluoro-2-hydroxy-3-(2H-tetrazol-2-yl)propyl)pyridin-3-yl)oxy)benzonitrile] | 1.5 to 4 µg/mL (≈ 3.08 to 8.22 µM)
16 | OC(Cn1ncnn1)(c1ccc(F)cc1F)C(F)(F)c1ccc(OCc2cc(F)cc(F)c2)cn1 (stereo not drawn) [Compound 36, 1-(5-((3,5-Difluorobenzyl)oxy)pyridin-2-yl)-2-(2,4-difluorophenyl)-1,1-difluoro-3-(2H-tetrazol-2-yl)propan-2-ol] | > 4 µg/mL
17 | OC(Cn1ncnn1)(c1ccc(Cl)cc1F)C(F)(F)c1ccc(OCC(F)(F)F)cn1 (stereo not drawn) [Compound 72, 2-(4-Chloro-2-fluorophenyl)-1,1-difluoro-3-(2H-tetrazol-2-yl)-1-(5-(2,2,2-trifluoroethoxy)pyridin-2-yl)propan-2-ol] | > 4 µg/mL
18 | OC(Cn1cnnn1)(c1ccc(F)cc1F)C(F)(F)c1ccc(OCc2ccc(Cl)cc2)cn1 (stereo not drawn) [Compound 4, 1-(5-(4-Chlorobenzyloxy)pyridin-2-yl)-2-(2,4-difluorophenyl)-1,1-difluoro-3-(1H-tetrazol-1-yl)propan-2-ol] | ≤ 0.5 µg/mL
19 | OC(Cn1cnnn1)(c1ccc(F)cc1F)C(F)(F)c1ccc(Oc2nc3cc(Cl)ccc3s2)cn1 (stereo not drawn) [Compound 109, 1-(5-((5-chlorobenzo[d]thiazol-2-yl)oxy)pyridin-2-yl)-2-(2,4-difluorophenyl)-1,1-difluoro-3-(1H-tetrazol-1-yl)propan-2-ol] | ≤ 0.5 µg/mL
20 | OC(Cn1cnnn1)(c1ccc(F)cc1F)C(F)(F)c1ccc(OCc2ccc(F)cc2)cn1 (stereo not drawn) [Compound 19, 2-(2,4-Difluorophenyl)-1,1-difluoro-1-(5-((4-fluorobenzyl)oxy)pyridin-2-yl)-3-(1H-tetrazol-1-yl)propan-2-ol] | 0.5 to 1.5 µg/mL (≈ 1.05 to 3.14 µM)
21 | OC(Cn1cnnn1)(c1ccc(F)cc1F)C(F)(F)c1ccc(Oc2nc3ccc(Cl)cc3s2)cn1 (stereo not drawn) [Compound 110, 1-(5-((6-chlorobenzo[d]thiazol-2-yl)oxy)pyridin-2-yl)-2-(2,4-difluorophenyl)-1,1-difluoro-3-(1H-tetrazol-1-yl)propan-2-ol] | ≤ 0.5 µg/mL
22 | N#Cc1ccc(Oc2ccc(C(F)(F)C(O)(Cn3ncnn3)c3ccc(F)cc3F)nc2)c(F)c1 (stereo not drawn) [Compound 90, 4-((6-(2-(2,4-Difluorophenyl)-1,1-difluoro-2-hydroxy-3-(2H-tetrazol-2-yl)propyl)pyridin-3-yl)oxy)-3-fluorobenzonitrile] | 1.5 to 4 µg/mL (≈ 3.07 to 8.19 µM)
23 | N#Cc1ccc(Oc2ccc(C(F)(F)C(O)(Cn3cnnn3)c3ccc(F)cc3F)nc2)cn1 (stereo not drawn) [Compound 112, 5-((6-(2-(2,4-difluorophenyl)-1,1-difluoro-2-hydroxy-3-(1H-tetrazol-1-yl)propyl)pyridin-3-yl)oxy)picolinonitrile] | ≤ 0.5 µg/mL
24 | N#CCOc1ccc(C(F)(F)C(O)(Cn2cnnn2)c2ccc(F)cc2F)nc1 (stereo not drawn) [Compound 29, 2-((6-(2-(2,4-Difluorophenyl)-1,1-difluoro-2-hydroxy-3-(1H-tetrazol-1-yl)propyl)pyridin-3-yl)oxy)acetonitrile] | 1.5 to 4 µg/mL (≈ 3.67 to 9.8 µM)
